Data: patent publication US11793849B2, “Method of Chinese herbal medicine extract used for treating multiple diseases caused by drug resistant bacteria infection” (priority 2016, dated 2023)
Converted amounts (≈) assume the structure as drawn. Read-outs that look alike come from different tables or passages of the source.

Test system: MDRAB
Experiment: MIC determination, microdilution broth method
Assay type: cell-based, Acinetobacter baumannii
Conditions: for MIC: read-out: MIC
[1] = single use, 20 MDRABs, EA=10% ethanol extract
[2] = single use, 20 MDRABs, EA=water extract
[3] = single use, 20 MDRABs, section of the 95% ethanol extract

Experimental: Determination methods of a Minimal Inhibitory Concentration (MIC) and a Minimum Bactericidal Concentration (MBC) of a test product: the MIC and the MBC of the Pithecellobium clypearia Benth water or ethanol extract to the MDRAB are determined by a microdilution broth method. And it is operated by referring to the microdilution broth method recommended by National Committee for Clinical Laboratory Standards (NCCLS).

MIC (Acinetobacter baumannii, strain A1, EA=60% ethanol extract): 1 µg/mL (≈ 3.34 µM)
MIC (Acinetobacter baumannii, strain A1, EA=95% ethanol extract): 1 µg/mL (≈ 3.34 µM)
MIC (Acinetobacter baumannii, strain A1, single use, EA=10% ethanol extract): 1 µg/mL (≈ 3.34 µM)
MIC (Acinetobacter baumannii, strain A1, single use, EA=water extract): 1 µg/mL (≈ 3.34 µM)
MIC (Acinetobacter baumannii, strain A2, EA=60% ethanol extract): 32 µg/mL (≈ 107 µM)
MIC (Acinetobacter baumannii, strain A2, EA=95% ethanol extract): 32 µg/mL (≈ 107 µM)
MIC (Acinetobacter baumannii, strain A2, single use, EA=10% ethanol extract): 32 µg/mL (≈ 107 µM)
MIC (Acinetobacter baumannii, strain A2, single use, EA=water extract): 32 µg/mL (≈ 107 µM)
MIC (Acinetobacter baumannii, strain A3, EA=60% ethanol extract): 32 µg/mL (≈ 107 µM)
MIC (Acinetobacter baumannii, strain A3, EA=95% ethanol extract): 32 µg/mL (≈ 107 µM)
MIC (Acinetobacter baumannii, strain A3, single use, EA=10% ethanol extract): 32 µg/mL (≈ 107 µM)
MIC (Acinetobacter baumannii, strain A3, single use, EA=water extract): 32 µg/mL (≈ 107 µM)
MIC (Acinetobacter baumannii, strain A4, EA=60% ethanol extract): 8 µg/mL (≈ 26.7 µM)
MIC (Acinetobacter baumannii, strain A4, EA=95% ethanol extract): 8 µg/mL (≈ 26.7 µM)
MIC (Acinetobacter baumannii, strain A4, single use, EA=10% ethanol extract): 8 µg/mL (≈ 26.7 µM)
MIC (Acinetobacter baumannii, strain A4, single use, EA=water extract): 8 µg/mL (≈ 26.7 µM)
MIC (Acinetobacter baumannii, strain A5, EA=60% ethanol extract): 32 µg/mL (≈ 107 µM)
MIC (Acinetobacter baumannii, strain A5, EA=95% ethanol extract): 32 µg/mL (≈ 107 µM)
MIC (Acinetobacter baumannii, strain A5, single use, EA=10% ethanol extract): 32 µg/mL (≈ 107 µM)
MIC (Acinetobacter baumannii, strain A5, single use, EA=water extract): 32 µg/mL (≈ 107 µM)
MIC (Acinetobacter baumannii, strain A6, EA=60% ethanol extract): 32 µg/mL (≈ 107 µM)
MIC (Acinetobacter baumannii, strain A6, EA=95% ethanol extract): 32 µg/mL (≈ 107 µM)
MIC (Acinetobacter baumannii, strain A6, single use, EA=10% ethanol extract): 32 µg/mL (≈ 107 µM)
MIC (Acinetobacter baumannii, strain A6, single use, EA=water extract): 32 µg/mL (≈ 107 µM)
MIC (Acinetobacter baumannii, strain A7, EA=60% ethanol extract): 32 µg/mL (≈ 107 µM)
MIC (Acinetobacter baumannii, strain A7, EA=95% ethanol extract): 32 µg/mL (≈ 107 µM)
MIC (Acinetobacter baumannii, strain A7, single use, EA=10% ethanol extract): 32 µg/mL (≈ 107 µM)
MIC (Acinetobacter baumannii, strain A7, single use, EA=water extract): 32 µg/mL (≈ 107 µM)
MIC (Acinetobacter baumannii, strain A8, EA=60% ethanol extract): 32 µg/mL (≈ 107 µM)
MIC (Acinetobacter baumannii, strain A8, EA=95% ethanol extract): 32 µg/mL (≈ 107 µM)
MIC (Acinetobacter baumannii, strain A8, single use, EA=10% ethanol extract): 32 µg/mL (≈ 107 µM)
MIC (Acinetobacter baumannii, strain A8, single use, EA=water extract): 32 µg/mL (≈ 107 µM)
MIC (Acinetobacter baumannii, strain A9, EA=60% ethanol extract): 32 µg/mL (≈ 107 µM)
MIC (Acinetobacter baumannii, strain A9, EA=95% ethanol extract): 32 µg/mL (≈ 107 µM)
MIC (Acinetobacter baumannii, strain A9, single use, EA=10% ethanol extract): 32 µg/mL (≈ 107 µM)
MIC (Acinetobacter baumannii, strain A9, single use, EA=water extract): 32 µg/mL (≈ 107 µM)
MIC (Acinetobacter baumannii, strain A10, EA=60% ethanol extract): 16 µg/mL (≈ 53.4 µM)
MIC (Acinetobacter baumannii, strain A10, EA=95% ethanol extract): 16 µg/mL (≈ 53.4 µM)
MIC (Acinetobacter baumannii, strain A10, single use, EA=10% ethanol extract): 16 µg/mL (≈ 53.4 µM)
MIC (Acinetobacter baumannii, strain A10, single use, EA=water extract): 16 µg/mL (≈ 53.4 µM)
MIC (Acinetobacter baumannii, strain A11, EA=60% ethanol extract): 32 µg/mL (≈ 107 µM)
MIC (Acinetobacter baumannii, strain A11, EA=95% ethanol extract): 32 µg/mL (≈ 107 µM)
MIC (Acinetobacter baumannii, strain A11, single use, EA=10% ethanol extract): 32 µg/mL (≈ 107 µM)
MIC (Acinetobacter baumannii, strain A11, single use, EA=water extract): 32 µg/mL (≈ 107 µM)
MIC (Acinetobacter baumannii, strain A12, EA=60% ethanol extract): 32 µg/mL (≈ 107 µM)
MIC (Acinetobacter baumannii, strain A12, EA=95% ethanol extract): 32 µg/mL (≈ 107 µM)
MIC (Acinetobacter baumannii, strain A12, single use, EA=10% ethanol extract): 32 µg/mL (≈ 107 µM)
MIC (Acinetobacter baumannii, strain A12, single use, EA=water extract): 32 µg/mL (≈ 107 µM)
MIC (Acinetobacter baumannii, strain A13, EA=60% ethanol extract): 32 µg/mL (≈ 107 µM)
MIC (Acinetobacter baumannii, strain A13, EA=95% ethanol extract): 32 µg/mL (≈ 107 µM)
MIC (Acinetobacter baumannii, strain A13, single use, EA=10% ethanol extract): 32 µg/mL (≈ 107 µM)
MIC (Acinetobacter baumannii, strain A13, single use, EA=water extract): 32 µg/mL (≈ 107 µM)
MIC (Acinetobacter baumannii, strain A14, EA=60% ethanol extract): 32 µg/mL (≈ 107 µM)
MIC (Acinetobacter baumannii, strain A14, EA=95% ethanol extract): 32 µg/mL (≈ 107 µM)
MIC (Acinetobacter baumannii, strain A14, single use, EA=10% ethanol extract): 32 µg/mL (≈ 107 µM)
MIC (Acinetobacter baumannii, strain A14, single use, EA=water extract): 32 µg/mL (≈ 107 µM)
MIC (Acinetobacter baumannii, strain A15, EA=60% ethanol extract): 32 µg/mL (≈ 107 µM)
MIC (Acinetobacter baumannii, strain A15, EA=95% ethanol extract): 32 µg/mL (≈ 107 µM)
MIC (Acinetobacter baumannii, strain A15, single use, EA=10% ethanol extract): 32 µg/mL (≈ 107 µM)
MIC (Acinetobacter baumannii, strain A15, single use, EA=water extract): 32 µg/mL (≈ 107 µM)
MIC (Acinetobacter baumannii, strain A16, EA=60% ethanol extract): 32 µg/mL (≈ 107 µM)
MIC (Acinetobacter baumannii, strain A16, EA=95% ethanol extract): 32 µg/mL (≈ 107 µM)
MIC (Acinetobacter baumannii, strain A16, single use, EA=10% ethanol extract): 32 µg/mL (≈ 107 µM)
MIC (Acinetobacter baumannii, strain A16, single use, EA=water extract): 32 µg/mL (≈ 107 µM)
MIC (Acinetobacter baumannii, strain A17, EA=60% ethanol extract): 16 µg/mL (≈ 53.4 µM)
MIC (Acinetobacter baumannii, strain A17, EA=95% ethanol extract): 16 µg/mL (≈ 53.4 µM)
MIC (Acinetobacter baumannii, strain A17, single use, EA=10% ethanol extract): 16 µg/mL (≈ 53.4 µM)
MIC (Acinetobacter baumannii, strain A17, single use, EA=water extract): 16 µg/mL (≈ 53.4 µM)
MIC (Acinetobacter baumannii, strain A18, EA=60% ethanol extract): 32 µg/mL (≈ 107 µM)
MIC (Acinetobacter baumannii, strain A18, EA=95% ethanol extract): 32 µg/mL (≈ 107 µM)
MIC (Acinetobacter baumannii, strain A18, single use, EA=10% ethanol extract): 32 µg/mL (≈ 107 µM)
MIC (Acinetobacter baumannii, strain A18, single use, EA=water extract): 32 µg/mL (≈ 107 µM)
MIC (Acinetobacter baumannii, strain A19, EA=60% ethanol extract): 32 µg/mL (≈ 107 µM)
MIC (Acinetobacter baumannii, strain A19, EA=95% ethanol extract): 32 µg/mL (≈ 107 µM)
MIC (Acinetobacter baumannii, strain A19, single use, EA=10% ethanol extract): 32 µg/mL (≈ 107 µM)
MIC (Acinetobacter baumannii, strain A19, single use, EA=water extract): 32 µg/mL (≈ 107 µM)
MIC (Acinetobacter baumannii, strain A20, EA=60% ethanol extract): 32 µg/mL (≈ 107 µM)
MIC (Acinetobacter baumannii, strain A20, EA=95% ethanol extract): 32 µg/mL (≈ 107 µM)
MIC (Acinetobacter baumannii, strain A20, single use, EA=10% ethanol extract): 32 µg/mL (≈ 107 µM)
MIC (Acinetobacter baumannii, strain A20, single use, EA=water extract): 32 µg/mL (≈ 107 µM)
MIC50 (Acinetobacter baumannii, single use, 20 MDRABs, section of the 60% ethanol extract, read-out: MIC50): 32 µg/mL (≈ 107 µM)
MIC90 (Acinetobacter baumannii, single use, 20 MDRABs, section of the 60% ethanol extract, read-out: MIC90): 32 µg/mL (≈ 107 µM)
MIC50 (MDRABs, EA=60% ethanol extract): 32 µg/mL (≈ 107 µM)
MIC90 (MDRABs, EA=60% ethanol extract): 32 µg/mL (≈ 107 µM)
MIC Range (MDRABs, EA=60% ethanol extract): 1 to 32 µg/mL
MIC50 (MDRABs, EA=95% ethanol extract): 32 µg/mL (≈ 107 µM)
MIC90 (MDRABs, EA=95% ethanol extract): 32 µg/mL (≈ 107 µM)
MIC Range (MDRABs, EA=95% ethanol extract): 1 to 32 µg/mL
MIC50 [1]: 32 µg/mL (≈ 107 µM)
MIC90 [1]: 32 µg/mL (≈ 107 µM)
MIC Range [1]: 1 to 32 µg/mL
MIC50 [2]: 32 µg/mL (≈ 107 µM)
MIC90 [2]: 32 µg/mL (≈ 107 µM)
MIC Range [2]: 1 to 32 µg/mL
MIC50 [3]: 32 µg/mL (≈ 107 µM)
MIC90 [3]: 32 µg/mL (≈ 107 µM)
SMILES: C[C@@H](O)[C@H]1C(=O)N2C(C(=O)O)=C(SCCN=CN)C[C@H]12 [IMP, imipenem]
